Data reported in patent publication US10278974B2 (Pfizer Inc., priority 2010, dated 2019).

Assays:
Assay type in all cases: physicochemical
[1] = Susceptibility of salt forms to hydration; settings: compared to other salt forms of Compound 1; solid dosage form suitability
[2] = Hygroscopicity by dynamic vapor sorption (DVS); settings: 30° C., 0 to 90% RH in 15% RH intervals
Method: Solid (20-25 mg) was exposed to a controlled relative humidity (% RH) and temperature environment (30° C.), and the weight change was recorded over time. The humidity was stepped from 0 to 90% RH in 15% RH intervals.

[3] = Physical stability on storage, followed by PXRD; settings: two weeks of storage at 70° C. with 75% relative humidity
Method: A PXRD pattern for maleate polymorph Form B was measured at: 1) an initial time point and 2): two weeks after storage at 70° C. with 75% relative humidity (RH).
A PXRD pattern for S-camsylate polymorph Form A was measured at: 1) an initial time point and 2): two weeks after storage at 70° C. with 75% relative humidity (RH).

| SMILES | susceptibility to hydration [1] | hygroscopicity indicated by dynamic vapor sorption isotherm [2] | change of PXRD pattern after storage (physical stability) [3] |
| --- | --- | --- | --- |
| CC1(C)[C@@H]2CC[C@@]1(CS(=O)(=O)O)C(=O)C2.CNCc1ccc(-c2[nH]c3cc(F)cc4c3c2CCNC4=O)cc1 [S-camsylate polymorph Form A] | not susceptible to hydration | non-hygroscopic | did not change significantly |
| CNCc1ccc(-c2[nH]c3cc(F)cc4c3c2CCNC4=O)cc1.O=C(O)C=CC(=O)O [maleate polymorph Form B] | not susceptible to hydration | non-hygroscopic | did not change significantly |
